The subject of the assay is SK-LMS-1. As to the kind of experiment: relative viability vs DMSO control (72 h) (fraction); higher = more viable cells. Summed up: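 Sarcoma cell lines in 384-well plates, seeded to reach 80–90% confluence, were given compound after 24 h and kept 72 h at 37 °C, 5% CO2, with 0.1% DMSO vehicle and a 5 µM positive control. Relative viability came from ATPLite as percent growth, averaged over up to triplicate wells. On the rescaled values, 1 equals full and 0 equals none.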

± gives the standard deviation of the averaged measurements.

In the case of `Cc1ccc(F)c(NC(=O)Nc2ccc(-c3cccc4[nH]nc(N)c34)cc2)c1` [Linifanib], the relative viability is, setting by setting: (0.00017 µM) 0.97 ± 0.011; (0.00051 µM) 1 ± 0.02; (0.00152 µM) 1.02 ± 0.022; (0.00457 µM) 1.01 ± 0.038; (0.01372 µM) 1.03 ± 0.037; (0.04115 µM) 1.01 ± 0.041. The relative viability is, setting by setting: (0.1235 µM) 1.02 ± 0.05; (0.3704 µM) 1.04 ± 0.059; (1.111 µM) 1.099 ± 0.0016; (3.333 µM) 1.05 ± 0.058; (10 µM) 1.06 ± 0.075.

In the case of `CC(C)N1CCN(Cc2cnc(-c3cc(-c4cccc5[nH]ccc45)cc4[nH]ncc34)o2)CC1` [Nemiralisib], the relative viability turned out to be 1.05 ± 0.047 (0.00017 µM); 1.02 ± 0.033 (0.00051 µM); 1.06 ± 0.038 (0.00152 µM); 1.04 ± 0.011 (0.00457 µM); 1.04 ± 0.047 (0.01372 µM); 1.05 ± 0.04 (0.04115 µM). Moreover, the relative viability reads like this: (0.1235 µM) 1.042 ± 0.0068; (0.3704 µM) 0.994 ± 0.033; (1.111 µM) 0.928 ± 0.012; (3.333 µM) 0.821 ± 0.029; (10 µM) 0.658 ± 0.041.

Take `COCc1c(-c2cc3cc(C)cc(OC)c3s2)c2c(N)ncnn2c1CN1CCNC(=O)C1` [Rogaratinib]: the relative viability (0.00017 µM) came out at 1.01 ± 0.034; the relative viability (0.00051 µM) was 0.992 ± 0.026; the relative viability (0.00152 µM) worked out at 1.02 ± 0.022; the relative viability (0.00457 µM) worked out at 1.01 ± 0.044; the relative viability (0.01372 µM) was found to be 0.995 ± 0.022; the relative viability (0.04115 µM) was 0.992 ± 0.035. For the same compound, the relative viability was 1 ± 0.01 (0.1235 µM); 0.975 ± 0.017 (0.3704 µM); 0.96 ± 0.036 (1.111 µM); 0.76 ± 0.019 (3.333 µM); 0.589 ± 0.017 (10 µM).

Regarding `Cc1cc(Nc2ncnc3ccc(NC4=NC(C)(C)CO4)cc23)ccc1Oc1ccn2ncnc2c1` [Tucatinib], the relative viability (0.00017 µM) amounted to 1.1 ± 0.022; the relative viability (0.00051 µM) came out at 1.09 ± 0.06; the relative viability (0.00152 µM) worked out at 1.08 ± 0.041; the relative viability (0.00457 µM) stood at 1.09 ± 0.058; the relative viability (0.01372 µM) came to 1.08 ± 0.047; the relative viability (0.04115 µM) is 1.08 ± 0.034. The same compound had a relative viability (0.1235 µM) of 1.08 ± 0.033; a relative viability (0.3704 µM) of 1.09 ± 0.055; a relative viability (1.111 µM) of 1.09 ± 0.045; a relative viability (3.333 µM) of 1.05 ± 0.025; a relative viability (10 µM) of 0.7801 ± 0.0053.

As for `O=C(Nc1cnn2ccc(N3CCC[C@@H]3c3cc(F)ccc3F)nc12)N1CC[C@H](O)C1` [Larotrectinib], the relative viability was found to be 1.12 ± 0.03 (0.00017 µM); 1.16 ± 0.051 (0.00051 µM); 1.13 ± 0.057 (0.00152 µM); 1.08 ± 0.015 (0.00457 µM); 1.07 ± 0.047 (0.01372 µM); 1.11 ± 0.025 (0.04115 µM). Also, the relative viability runs as follows: (0.1235 µM) 1.11 ± 0.028; (0.3704 µM) 1.06 ± 0.026; (1.111 µM) 1.08 ± 0.03; (3.333 µM) 1.08 ± 0.032; (10 µM) 1.071 ± 0.0057.

As to `CN1CCC(COc2cnc(-c3cccc(Cn4nc(-c5cccc(C#N)c5)ccc4=O)c3)nc2)CC1` [Tepotinib], the relative viability reads like this: (0.00017 µM) 1.06 ± 0.027; (0.00051 µM) 1.05 ± 0.022; (0.00152 µM) 1.01 ± 0.037; (0.00457 µM) 1.05 ± 0.039; (0.01372 µM) 1 ± 0.047; (0.04115 µM) 0.833 ± 0.017. Further, the relative viability is 0.597 ± 0.019 (0.1235 µM); 0.526 ± 0.0067 (0.3704 µM); 0.489 ± 0.0072 (1.111 µM); 0.461 ± 0.02 (3.333 µM); 0.361 ± 0.028 (10 µM).

Consider `C[C@@H]1CCN(C(=O)CC#N)C[C@@H]1N(C)c1ncnc2[nH]ccc12` [Tofacitinib], for which the relative viability is 1.08 ± 0.053 (0.00017 µM); 1.05 ± 0.057 (0.00051 µM); 1.1 ± 0.057 (0.00152 µM); 1.11 ± 0.042 (0.00457 µM); 1.09 ± 0.064 (0.01372 µM); 1.07 ± 0.031 (0.04115 µM). Besides, the relative viability stood at 1.062 ± 0.0089 (0.1235 µM); 1.07 ± 0.022 (0.3704 µM); 1.07 ± 0.039 (1.111 µM); 1.03 ± 0.039 (3.333 µM); 0.902 ± 0.056 (10 µM).

Take `N#CC[C@H](C1CCCC1)n1cc(-c2ncnc3[nH]ccc23)cn1` [Ruxolitinib]: the relative viability (0.00017 µM) was found to be 1.03 ± 0.012; the relative viability (0.00051 µM) worked out at 1 ± 0.037; the relative viability (0.00152 µM) was 0.995 ± 0.036; the relative viability (0.00457 µM) was 1.03 ± 0.034; the relative viability (0.01372 µM) worked out at 1.036 ± 0.0052; the relative viability (0.04115 µM) was 1.035 ± 0.0072. Besides, the relative viability by setting is: (0.1235 µM) 1.02 ± 0.021; (0.3704 µM) 1.03 ± 0.029; (1.111 µM) 1.03 ± 0.039; (3.333 µM) 0.986 ± 0.033; (10 µM) 0.828 ± 0.02.

For the compound `C=CC(=O)N1CCC[C@@H](n2nc(-c3ccc(Oc4ccccc4)cc3)c3c(N)ncnc32)C1` [Ibrutinib], the relative viability by setting is: (0.00017 µM) 1.04 ± 0.048; (0.00051 µM) 1.01 ± 0.058; (0.00152 µM) 1.02 ± 0.045; (0.00457 µM) 1.03 ± 0.04; (0.01372 µM) 1.04 ± 0.015; (0.04115 µM) 1.03 ± 0.016. Moreover, the relative viability by setting is: (0.1235 µM) 1.05 ± 0.055; (0.3704 µM) 1.05 ± 0.028; (1.111 µM) 1.05 ± 0.012; (3.333 µM) 0.9551 ± 0.0066; (10 µM) 0.693 ± 0.032.
